Test results reported in patent US11485708B2, “Compounds for treatment of PD-L1 diseases” (CHEMOCENTRYX, INC., priority 2019, dated 2022).
pIC50: −log10 of the molar value.

Biological target: human PD-L1 / Human PD-1 (Homo sapiens (Human), UniProt Q9NZQ7)
Test: Enzyme-Linked Immunosorbent Assay (ELISA), PD-1/PD-L1 binding
Details: plates coated with human PD-L1, biotinylated human PD-1 added
Procedure: 96 Well plates were coated with 1 μg/mL of human PD-L1 (obtained from R&D) in PBS overnight at 4′° C. The wells were then blocked with 2% BSA in PBS (W/V) with 0.05% TWEEN-20 for 1 hour at 37′° C. The plates were washed 3 times with PBS/0.05% TWEEN-20 and the compounds were serial diluted (1:5) in dilution medium and added to the ELISA plates. Human PD-1 and biotin 0.3 μg/mL (ACRO Biosystems) were added and incubated for 1 hour at 37° C. then washed 3 times with PBS/0.05% TWEEN-20. A second block was performed with 2% BSA in PBS (WNV)/0.05% TWEEN-20 for 10 min at 37° C. and the plates were washed 3 times with PBS/0.05% TWEEN-20. Streptavidin-HIRP was added for 1 hour at 37° C. then the plates were washed 3 times with PBS/0.05% TWEEN-20. TMB substrate was added and reacted for 20 min at 37° C. A stop solution (2 N aqueous H2SO4) was added. The absorbance was read at 450 nm using a micro-plate spectrophotometer.

human PD-L1 / Human PD-1, sequence (Q9NZQ7 19-239): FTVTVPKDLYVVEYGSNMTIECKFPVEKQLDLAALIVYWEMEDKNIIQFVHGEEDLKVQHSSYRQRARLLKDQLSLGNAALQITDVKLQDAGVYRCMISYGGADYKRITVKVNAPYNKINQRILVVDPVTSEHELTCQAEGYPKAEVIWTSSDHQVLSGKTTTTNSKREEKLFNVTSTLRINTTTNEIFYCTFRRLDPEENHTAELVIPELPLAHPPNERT

| pIC50 | Compound |
| --- | --- |
| > 6.00 | C=Cc1c(-c2ccc3c(c2)CCNC3)cccc1-c1cccc(OCCCN2CCC2(C)C)c1C [Compd 1.076, 6-(3′-(3-(2,2-dimethylazetidin-1-yl)propoxy)-2′-methyl-2-vinyl-[1,1′-biphenyl]-3-yl)-1,2,3,4-tetrahydroisoquinoline] |
| > 6.00 | Cc1c(OCCCN2CC3(CC(O)C3)C2)cccc1-c1cccc(-c2ccc3c(c2)CCNC3)c1C [Compd 1.109] |
| > 6.00 | Cc1c(-c2ccc3c(c2)CCNC3)cccc1-c1cccc(-c2ccc3c(c2)CCNC3)c1C [Compd 1.042] |
| > 6.00 | COC(=O)C1=Cc2cc(-c3cccc(-c4cc(F)c(CN)c(OC)c4)c3C)ccc2OC1 [Compd 1.016, Methyl 6-(4′-(aminomethyl)-3′-fluoro-5′-methoxy-2-methyl-[1,1′-biphenyl]-3-yl)-2H-chromene-3-carboxylate] |
| > 6.00 | Cc1c(OCCCN2CC(O)C2)cccc1-c1cccc(-c2ccc3c(c2)CCNC3)c1C [Compd 1.112] |
| > 6.00 | Cc1c(OCCCN2[C@H](C)CC[C@H]2C)cccc1-c1cccc(-c2ccc3c(c2)CCNC3)c1C [Compd 1.114] |
| > 6.00 | COc1cc(-c2cccc(-c3cccc(NC4CCNCC4)c3C)c2C)cc(F)c1CN [Compd 1.003, N-(4″-(aminomethyl)-3″-fluoro-5″-methoxy-2,2′-dimethyl-[1,1′:3′,1″-terphenyl]-3-yl)piperidin-4-amine] |
| > 6.00 | Cc1c(OCCCN2[C@H](C)CC[C@H]2C)cccc1-c1cccc(-c2ccc(CN(C)C)c(OC(C)C)c2)c1C [Compd 1.074] |
| > 6.00 | COC(=O)CCCN(C)Cc1c(F)cc(-c2cccc(-c3cccc(-c4cc(F)c(CN(C)CCCC(=O)OC)c(OC)c4)c3C)c2C)cc1OC [Compd 1.057] |
| 5.00 to 6.00 | CCOC(=O)CN1CCc2cc(-c3cccc(-c4cccc(OCCCN5[C@H](C)CC[C@H]5C)c4C)c3C)ccc2C1 [Compd 1.106] |
| > 6.00 | COc1cc(-c2cccc(-c3cccc(OCCCN4CCC(F)CC4)c3C)c2C)ccc1CN(C)C [Compd 1.094] |
| > 6.00 | COc1cc(-c2cccc(-c3cccc(-c4cc(F)c(CN(C)C)c(OC)c4)c3C)c2C)cc(F)c1CNCCO [Compd 1.050, 2-(((4′″-((dimethylamino)methyl)-3,3′″-difluoro-5,5′″-dimethoxy-2′,2″-dimethyl-[1,1′:3′,1″:3″,1′″-quaterphenyl]-4-yl)methyl)amino)ethan-1-ol] |
| 5.00 to 6.00 | Cc1c(-c2ccc3c(c2)CNCC3)cccc1-c1ccc2c(c1)OCCO2 [Compd 1.128] |
| > 6.00 | Cc1c(OCCCN2[C@H](C)CC[C@H]2C)cccc1-c1cccc(-c2ccc3c(c2)CC(CO)NC3)c1C (stereo partly drawn) [Compd 1.069] |
| > 6.00 | Cc1c(OCCCN2[C@H](C)CC[C@H]2C)cccc1-c1cccc(-c2ccc(CNCCCC(=O)O)cc2)c1C [Compd 1.100] |
| 5.00 to 6.00 | Cc1c(OCCCN2CCC2(C)C)cccc1-c1cccc(-c2ccc3c(c2)CCNC3)c1C(F)(F)F [Compd 1.085] |
| 5.00 to 6.00 | COc1cc(-c2cccc(-c3cccc(-c4cc(F)c(CN)c(OC)c4)c3C)c2C)ccc1C(=O)O [Compd 1.005] |
| 5.00 to 6.00 | COc1cc(-c2cccc(-c3cccc(CCN)c3C)c2C)cc(F)c1CN [Compd 1.023] |
| > 6.00 | COc1cc(-c2cccc(-c3cccc(-c4cc(F)c(CNCCS(=O)(=O)O)c(OC)c4)c3C)c2C)cc(F)c1CNCCS(=O)(=O)O [Compd 1.041, 2,2′-(((3,3′″-difluoro-5,5′″-dimethoxy-2′,2″-dimethyl-[1,1′:3′,1″:3″,1′″-quaterphenyl]-4,4′″-diyl)bis(methylene))bis(azanediyl))bis(ethane-1-sulfonic Acid)] |
| > 6.00 | COc1cc(-c2cccc(-c3cccc(-c4cc(F)c(CN)c(OC)c4)c3C)c2C)ccc1CN [Compd 1.036] |
| > 6.00 | COc1cc(-c2cccc(-c3cccc(-c4cc(F)c(CNCCO)c(OC)c4)c3C)c2C)cc(F)c1CNCCO [Compd 1.051, 2,2′-(((3,3′″-difluoro-5,5′″-dimethoxy-2′,2″-dimethyl-[1,1′:3′,1″:3″,1′″-quaterphenyl]-4,4′″-diyl)bis(methylene))bis(azanediyl))bis(ethan-1-ol)] |
| 5.00 to 6.00 | COC(=O)[C@@H]1CCCCN1Cc1ccc(-c2cccc(-c3cccc(OCCCN4CCC(F)CC4)c3C)c2C)cc1 [Compd 1.072] |
| > 6.00 | Cc1c(OCCCN2CCC2(C)C)cccc1-c1cccc(-c2ccc3c(c2)CNCC3)c1C [Compd 1.124] |

| pIC50 | Compound |
| --- | --- |
| > 6.00 | Cc1c(OCCCN2[C@H](C)CC[C@H]2C)cccc1-c1cccc(-c2ccc(C(C)(C)N)cc2)c1C [Compd 1.119] |
| > 6.00 | Cc1c(OCCCN2CCC2(C)C)cccc1-c1cccc(-c2ccc3c(c2)CCNC3)c1F [Compd 1.090, 6-(3′-(3-(2,2-dimethylazetidin-1-yl)propoxy)-2-fluoro-2′-methyl-[1,1′-biphenyl]-3-yl)-1,2,3,4-tetrahydroisoquinoline] |
| 5.00 to 6.00 | Cc1ccccc1-c1cccc(-c2ccc3c(c2)CCNC3)c1C [Compd 1.117, 6-(2,2′-dimethyl-[1,1′-biphenyl]-3-yl)-1,2,3,4-tetrahydroisoquinoline] |
| > 6.00 | COc1cc(-c2cccc(-c3cccc(-c4cc(F)c(CN[C@@H]5CCC[C@@H]5O)c(OC)c4)c3C)c2C)cc(F)c1CN[C@@H]1CCC[C@@H]1O [Compd 1.046] |
| > 6.00 | CNCc1c(F)cc(-c2cccc(-c3cccc(-c4cc(F)c(CNC)c(OC)c4)c3C)c2C)cc1OC [Compd 1.053] |
| > 6.00 | COc1cc(-c2cccc(-c3cccc(-c4cc(F)c(CCN)c(OC)c4)c3C)c2C)cc(F)c1CCN [Compd 1.045] |
| > 6.00 | Cc1c(OCCCN2CCC(F)CC2)cccc1-c1cccc(-c2ccc3c(c2)OCCNC3)c1C [Compd 1.080] |
| 5.00 to 6.00 | COc1cc(-c2cccc(-c3cccc(-n4ccnc4)c3C)c2C)cc(F)c1CN1CC(C(=O)O)C1 [Compd 1.006] |
| 5.00 to 6.00 | Cc1c(OCCCN2CCC(F)CC2)cccc1-c1cccc(-c2ccc(CN(C)C)c(C(F)(F)F)c2)c1C [Compd 1.084] |
| 5.00 to 6.00 | COc1ccc(-c2cccc(-c3cc(F)c(CN)c(OC)c3)c2C)cc1F [Compd 1.025] |
| > 6.00 | Cc1c(OCCCN2CCC2(C)C)cccc1-c1cccc(-c2ccc3c(c2)CCNC3)c1C [Compd 1.125] |
| 5.00 to 6.00 | Cc1c(OCCCN2CCC2(C)C)cccc1-c1cccc(-c2ccc3c(c2)CCNC3)c1 [Compd 1.103, 6-(3′-(3-(2,2-dimethylazetidin-1-yl)propoxy)-2′-methyl-[1,1′-biphenyl]-3-yl)-1,2,3,4-tetrahydroisoquinoline] |
| > 6.00 | Cc1c(OCCCN2CCC2(C)C)cccc1-c1cccc(-c2ccc3c(c2)CCNC3)c1C#N [Compd 1.102, 3′-(3-(2,2-dimethylazetidin-1-yl)propoxy)-2′-methyl-3-(1,2,3,4-tetrahydroisoquinolin-6-yl)-[1,1′-biphenyl]-2-carbonitrile] |
| > 6.00 | COc1cc(-c2cccc(-c3cccc(-c4cc(F)c(CNCC(=O)O)c(OC)c4)c3C)c2C)cc(F)c1CNCC(=O)O [Compd 1.062] |
| > 6.00 | Cc1c(-c2ccc3c(c2)CCNC3)cccc1-c1ccc2c(c1)OCCO2 [Compd 1.126] |
| > 6.00 | Cc1c(OCCCN2[C@H](C)CC[C@H]2C)cccc1-c1cccc(-c2ccc([C@H](C)N)cc2)c1C [Compd 1.098] |
| > 6.00 | Cc1c(OCCCN2CCC(F)CC2)cccc1-c1cccc(-c2ccc(CN(C)C)c(Cl)c2)c1C [Compd 1.081] |
| > 6.00 | Cc1c(-c2ccc3c(c2)CCNC3)cccc1-c1cccc(OCCCN2[C@H](C)CC[C@H]2C)c1Cl [Compd 1.092] |
| > 6.00 | COc1cc(-c2cccc(-c3cccc(OCCCN4[C@H](C)CC[C@H]4C)c3C)c2C)cc(F)c1CNCCCC(=O)O [Compd 1.067] |
| 5.00 to 6.00 | COc1cc(CN(C)C)ccc1-c1cccc(-c2cccc(OCCCN3CCC(F)CC3)c2C)c1C [Compd 1.093] |
| 5.00 to 6.00 | Cc1c(OCCCN2CCC(F)CC2)cccc1-c1cccc(-c2ccc(CN)cc2Cl)c1C [Compd 1.096] |
| > 6.00 | Cc1c(OCCCN2[C@H](C)CC[C@H]2C)cccc1-c1cccc(-c2ccc(CN(C)C)cc2)c1C [Compd 1.122] |
